In PubChem BioAssay (NCI):
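Results reflect a 48-hour exposure of cells in 96-well plates to compound at five concentrations. TGI is the concentration that stops growth completely.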

Tests used:
Assay in all cases: NCI-60 cell line screen, 48 h
XF 498 CNS = system: XF 498 CNS
UACC-257 melanoma = system: UACC-257 melanoma
UO-31 renal = system: UO-31 renal
M19-MEL melanoma = system: M19-MEL melanoma
UACC-62 melanoma = system: UACC-62 melanoma
K-562 leukemia = system: K-562 leukemia
COLO 205 colon = system: COLO 205 colon
M14 melanoma = system: M14 melanoma
IGROV1 ovarian = system: IGROV1 ovarian
HT29 colon = system: HT29 colon
HL-60(TB) leukemia = system: HL-60(TB) leukemia
MALME-3M melanoma = system: MALME-3M melanoma
NCI-H522 lung = system: NCI-H522 lung
SNB-75 CNS = system: SNB-75 CNS
HCC-2998 colon = system: HCC-2998 colon
DMS 114 small cell lung = system: DMS 114 small cell lung
OVCAR-8 ovarian = system: OVCAR-8 ovarian
SNB-19 CNS = system: SNB-19 CNS
KM12 colon = system: KM12 colon
RXF-631 renal = system: RXF-631 renal
SNB-78 CNS = system: SNB-78 CNS
ACHN renal = system: ACHN renal
SK-MEL-5 melanoma = system: SK-MEL-5 melanoma
SW-620 colon = system: SW-620 colon
OVCAR-4 ovarian = system: OVCAR-4 ovarian
HCT-15 colon = system: HCT-15 colon
SF-295 CNS = system: SF-295 CNS
OVCAR-3 ovarian = system: OVCAR-3 ovarian
NCI-H460 lung = system: NCI-H460 lung
HCT-116 colon = system: HCT-116 colon
DMS 273 small cell lung = system: DMS 273 small cell lung
SK-OV-3 ovarian = system: SK-OV-3 ovarian
CCRF-CEM leukemia = system: CCRF-CEM leukemia
A549 NSCLC = system: A549 NSCLC
TK-10 renal = system: TK-10 renal
DLD-1 colon = system: DLD-1 colon
LXFL 529 NSCLC = system: LXFL 529 NSCLC
HOP-18 NSCLC = system: HOP-18 NSCLC
A498 renal = system: A498 renal
786-0 renal = system: 786-0 renal
NCI-H23 lung = system: NCI-H23 lung
MOLT-4 leukemia = system: MOLT-4 leukemia
CAKI-1 renal = system: CAKI-1 renal
SF-539 CNS = system: SF-539 CNS
RPMI-8226 leukemia = system: RPMI-8226 leukemia
SK-MEL-2 melanoma = system: SK-MEL-2 melanoma
NCI-H226 lung = system: NCI-H226 lung
SF-268 CNS = system: SF-268 CNS
RXF 393 renal = system: RXF 393 renal
HOP-92 NSCLC = system: HOP-92 NSCLC
SK-MEL-28 melanoma = system: SK-MEL-28 melanoma
EKVX NSCLC = system: EKVX NSCLC
LOX IMVI melanoma = system: LOX IMVI melanoma
U251 CNS = system: U251 CNS
KM20L2 colon = system: KM20L2 colon
SN12C renal = system: SN12C renal
HOP-62 NSCLC = system: HOP-62 NSCLC

Q: Which results are given for `COc1ccc([Se][Se]c2ccc(OC)cc2OC)c(OC)c1`?
A: TGI (XF 498 CNS): 3.84 µM; TGI (UACC-257 melanoma): 5.85 µM; TGI (UO-31 renal): 5.31 µM; TGI (M19-MEL melanoma): 4.68 µM; TGI (UACC-62 melanoma): 4.14 µM; TGI (K-562 leukemia): 7.94 µM; TGI (COLO 205 colon): > 100 µM; TGI (M14 melanoma): 9.3 µM; TGI (IGROV1 ovarian): 15.3 µM; TGI (HT29 colon): > 100 µM; TGI (HL-60(TB) leukemia): 5.89 µM; TGI (MALME-3M melanoma): 33.2 µM; TGI (NCI-H522 lung): 4 µM; TGI (SNB-75 CNS): 3.11 µM; TGI (HCC-2998 colon): > 100 µM; TGI (DMS 114 small cell lung): 4.82 µM; TGI (OVCAR-8 ovarian): > 100 µM; TGI (SNB-19 CNS): 21 µM; TGI (KM12 colon): 14.6 µM; TGI (RXF-631 renal): 59.2 µM; TGI (SNB-78 CNS): 7.04 µM; TGI (ACHN renal): 8.89 µM; TGI (SK-MEL-5 melanoma): 29.3 µM; TGI (SW-620 colon): 7.04 µM; TGI (OVCAR-4 ovarian): 4.6 µM; TGI (HCT-15 colon): 4.33 µM; TGI (SF-295 CNS): 4.03 µM; TGI (OVCAR-3 ovarian): 20 µM; TGI (NCI-H460 lung): > 100 µM; TGI (HCT-116 colon): 10.5 µM; TGI (DMS 273 small cell lung): 19.7 µM; TGI (SK-OV-3 ovarian): 76.5 µM; TGI (CCRF-CEM leukemia): 5.29 µM; TGI (A549 NSCLC): > 100 µM; TGI (TK-10 renal): 16.3 µM; TGI (DLD-1 colon): 8.72 µM; TGI (LXFL 529 NSCLC): 4.64 µM; TGI (HOP-18 NSCLC): 4.72 µM; TGI (A498 renal): 53.5 µM; TGI (786-0 renal): 7.78 µM; TGI (NCI-H23 lung): 15.3 µM; TGI (MOLT-4 leukemia): 19.2 µM; TGI (CAKI-1 renal): 18.6 µM; TGI (SF-539 CNS): 3.16 µM; TGI (RPMI-8226 leukemia): 6.96 µM; TGI (SK-MEL-2 melanoma): 20.8 µM; TGI (NCI-H226 lung): 7.71 µM; TGI (SF-268 CNS): 4.97 µM; TGI (RXF 393 renal): 6.27 µM; TGI (HOP-92 NSCLC): 4.46 µM; TGI (SK-MEL-28 melanoma): 4.56 µM

Q: For `CC(=O)NCc1c(C(N)=O)ncn1Cc1ccccc1`, which TGI (XF 498 CNS) is on record?
A: > 100 µM

Q: What about the TGI (UACC-257 melanoma) of the same molecule?
A: > 100 µM

Q: What about the TGI (EKVX NSCLC) of the same molecule?
A: > 100 µM

Q: What about the TGI (M19-MEL melanoma) of the same molecule?
A: > 100 µM

Q: And the TGI (UACC-62 melanoma)?
A: > 100 µM

Q: And the TGI (K-562 leukemia)?
A: > 100 µM

Q: And the TGI (COLO 205 colon)?
A: > 100 µM

Q: And the TGI (M14 melanoma)?
A: > 100 µM

Q: And the TGI (IGROV1 ovarian)?
A: > 100 µM

Q: And the TGI (HT29 colon)?
A: > 100 µM

Q: What about the TGI (HL-60(TB) leukemia) of the same molecule?
A: > 100 µM

Q: And the TGI (SNB-75 CNS)?
A: > 100 µM

Q: And the TGI (HCC-2998 colon)?
A: > 100 µM

Q: And the TGI (DMS 114 small cell lung)?
A: > 100 µM

Q: What about the TGI (OVCAR-8 ovarian) of the same molecule?
A: > 100 µM

Q: What about the TGI (SNB-19 CNS) of the same molecule?
A: > 100 µM

Q: What about the TGI (RXF-631 renal) of the same molecule?
A: > 100 µM

Q: And the TGI (SNB-78 CNS)?
A: > 100 µM

Q: And the TGI (ACHN renal)?
A: > 100 µM

Q: And the TGI (SK-MEL-5 melanoma)?
A: > 100 µM

Q: And the TGI (SW-620 colon)?
A: > 100 µM

Q: What about the TGI (OVCAR-4 ovarian) of the same molecule?
A: > 100 µM

Q: What about the TGI (HCT-15 colon) of the same molecule?
A: > 100 µM

Q: What about the TGI (SF-295 CNS) of the same molecule?
A: > 100 µM

Q: What about the TGI (LOX IMVI melanoma) of the same molecule?
A: > 100 µM

Q: And the TGI (OVCAR-3 ovarian)?
A: > 100 µM

Q: And the TGI (U251 CNS)?
A: > 100 µM

Q: What about the TGI (NCI-H460 lung) of the same molecule?
A: > 100 µM

Q: What about the TGI (HCT-116 colon) of the same molecule?
A: > 100 µM

Q: What about the TGI (DMS 273 small cell lung) of the same molecule?
A: > 100 µM

Q: What about the TGI (SK-OV-3 ovarian) of the same molecule?
A: > 100 µM

Q: And the TGI (CCRF-CEM leukemia)?
A: > 100 µM

Q: What about the TGI (A549 NSCLC) of the same molecule?
A: > 100 µM

Q: What about the TGI (TK-10 renal) of the same molecule?
A: > 100 µM

Q: What about the TGI (LXFL 529 NSCLC) of the same molecule?
A: > 100 µM

Q: And the TGI (HOP-18 NSCLC)?
A: > 100 µM

Q: And the TGI (A498 renal)?
A: > 100 µM

Q: And the TGI (786-0 renal)?
A: > 100 µM

Q: And the TGI (NCI-H23 lung)?
A: > 100 µM

Q: What about the TGI (KM20L2 colon) of the same molecule?
A: > 100 µM

Q: And the TGI (MOLT-4 leukemia)?
A: > 100 µM

Q: And the TGI (SN12C renal)?
A: > 100 µM

Q: And the TGI (CAKI-1 renal)?
A: > 100 µM

Q: And the TGI (SF-539 CNS)?
A: > 100 µM

Q: What about the TGI (RPMI-8226 leukemia) of the same molecule?
A: > 100 µM

Q: What about the TGI (RXF 393 renal) of the same molecule?
A: > 100 µM

Q: What about the TGI (HOP-92 NSCLC) of the same molecule?
A: > 100 µM

Q: What about the TGI (HOP-62 NSCLC) of the same molecule?
A: > 100 µM

Q: And the TGI (SK-MEL-28 melanoma)?
A: > 100 µM
